Laboratory results reported in patent publication US20250312462A1, “PAK1 DEGRADERS AND METHODS OF USE THEREOF” (INSTITUTE FOR CANCER RESEARCH D/B/A THE RESEARCH INSTITUTE …, priority 2022, published 2025).
Where two headings read alike, the source gives them in different places.

How the values were obtained:
CDK4 = CDK4 (Homo sapiens, UniProt P11802); test: KINOMEscan; settings: read-out: Percent Control
Description: (§4) The kinase engagement assay (KINOMEscan®) was performed by DiscoverX assessing binding abilities toward a set of kinases.

Hey A8 cells = test: Cell proliferation, MTT assay; type: cell-based
Description: (§1) Cell proliferation was assessed by MTT assay.
(§2) Cell viability was measured by MTT assay and the half maximal inhibitory concentration (IC50) was calculated using GraphPad Prism. Triplicates were performed for each sample and medium alone was used as a blank.
(§3) The anti-proliferative effects of PAK1 degradation and inhibition were evaluated.

MCF7 cells = test: Cell proliferation, MTT assay; type: cell-based; settings: Homo sapiens, MCF7, MCF7 cells, read-out: EC50, anti-proliferative
Description: as §1, §2, §3

OMM1 cells = test: Cell proliferation, MTT assay; type: cell-based; settings: OMM1 cells (PAK2-dependent)
Description: as §1, §2, §3

RIPK4 = RIPK4 (Homo sapiens, UniProt P57078); test: KINOMEscan; settings: read-out: Percent Control
Description: as §4

BLK = BLK (Homo sapiens, UniProt P51451); test: KINOMEscan; settings: read-out: Percent Control
Description: as §4

HUNK = HUNK (Homo sapiens, UniProt P57058); test: KINOMEscan; settings: read-out: Percent Control
Description: as §4

WNK4 = WNK4 (Homo sapiens, UniProt Q96J92); test: KINOMEscan; settings: read-out: Percent Control
Description: as §4

SRC = SRC (Homo sapiens, UniProt P12931); test: KINOMEscan; settings: read-out: Percent Control
Description: as §4

MAPKAPK5 = MAPKAPK5 (Homo sapiens, UniProt Q8IW41); test: KINOMEscan; settings: read-out: Percent Control
Description: as §4

PRKD1 = PRKD1 (Homo sapiens, UniProt Q15139); test: KINOMEscan; settings: read-out: Percent Control
Description: as §4

TNK2 = TNK2 (Homo sapiens, UniProt Q07912); test: KINOMEscan; settings: read-out: Percent Control
Description: as §4

TTK = TTK (Homo sapiens, UniProt P33981); test: KINOMEscan; settings: read-out: Percent Control
Description: as §4

EPHA3 = EPHA3 (Homo sapiens, UniProt P29320); test: KINOMEscan; settings: read-out: Percent Control
Description: as §4

IKK-beta = IKK-beta (Homo sapiens, UniProt O14920); test: KINOMEscan; settings: read-out: Percent Control
Description: as §4

MTOR = MTOR (Homo sapiens, UniProt P42345); test: KINOMEscan; settings: read-out: Percent Control
Description: as §4

TGFBR1 = TGFBR1 (Homo sapiens, UniProt P36897); test: KINOMEscan; settings: read-out: Percent Control
Description: as §4

PIK3CA = PIK3CA (Homo sapiens, UniProt P42336); test: KINOMEscan; settings: read-out: Percent Control
Description: as §4

EPHA1 = EPHA1 (Homo sapiens, UniProt P21709); test: KINOMEscan; settings: read-out: Percent Control
Description: as §4

TAOK1 = TAOK1 (Homo sapiens, UniProt Q7L7X3); test: KINOMEscan; settings: read-out: Percent Control
Description: as §4

EGFR(L861Q) = EGFR(L861Q) (Homo sapiens, UniProt P00533, L861Q); test: KINOMEscan; settings: read-out: Percent Control
Description: as §4

PIK3CA(C420R) = PIK3CA(C420R) (Homo sapiens, UniProt P42336, C420R); test: KINOMEscan; settings: read-out: Percent Control
Description: as §4

TYRO3 = TYRO3 (Homo sapiens, UniProt Q06418); test: KINOMEscan; settings: read-out: Percent Control
Description: as §4

[1] = molecular target: RSK3(Kin.Dom.1-N-terminal) (Homo sapiens, UniProt Q15349); test: KINOMEscan; settings: read-out: Percent Control
Description: as §4

LATS1 = LATS1 (Homo sapiens, UniProt O95835); test: KINOMEscan; settings: read-out: Percent Control
Description: as §4

ICK = ICK (Homo sapiens, UniProt Q9UPZ9); test: KINOMEscan; settings: read-out: Percent Control
Description: as §4

MYLK2 = MYLK2 (Homo sapiens, UniProt Q9H1R3); test: KINOMEscan; settings: read-out: Percent Control
Description: as §4

ABL1-phosphorylated = ABL1-phosphorylated (Homo sapiens, UniProt P00519); test: KINOMEscan; settings: read-out: Percent Control
Description: as §4

GRK2 = GRK2 (Homo sapiens, UniProt P25098); test: KINOMEscan; settings: read-out: Percent Control
Description: as §4

ALK(C1156Y) = ALK(C1156Y) (Homo sapiens, UniProt Q9UM73, C1156Y); test: KINOMEscan; settings: read-out: Percent Control
Description: as §4

NDR2 = NDR2 (Homo sapiens, UniProt Q9Y2H1); test: KINOMEscan; settings: read-out: Percent Control
Description: as §4

RIOK1 = RIOK1 (Homo sapiens, UniProt Q9BRS2); test: KINOMEscan; settings: read-out: Percent Control
Description: as §4

FGFR3 = FGFR3 (Homo sapiens, UniProt P22607); test: KINOMEscan; settings: read-out: Percent Control
Description: as §4

CSNK1A1 = CSNK1A1 (Homo sapiens, UniProt P48729); test: KINOMEscan; settings: read-out: Percent Control
Description: as §4

EPHA6 = EPHA6 (Homo sapiens, UniProt Q9UF33); test: KINOMEscan; settings: read-out: Percent Control
Description: as §4

RAF1 = RAF1 (Homo sapiens, UniProt P04049); test: KINOMEscan; settings: read-out: Percent Control
Description: as §4

Sequence of FGFR3 (P22607 23-806): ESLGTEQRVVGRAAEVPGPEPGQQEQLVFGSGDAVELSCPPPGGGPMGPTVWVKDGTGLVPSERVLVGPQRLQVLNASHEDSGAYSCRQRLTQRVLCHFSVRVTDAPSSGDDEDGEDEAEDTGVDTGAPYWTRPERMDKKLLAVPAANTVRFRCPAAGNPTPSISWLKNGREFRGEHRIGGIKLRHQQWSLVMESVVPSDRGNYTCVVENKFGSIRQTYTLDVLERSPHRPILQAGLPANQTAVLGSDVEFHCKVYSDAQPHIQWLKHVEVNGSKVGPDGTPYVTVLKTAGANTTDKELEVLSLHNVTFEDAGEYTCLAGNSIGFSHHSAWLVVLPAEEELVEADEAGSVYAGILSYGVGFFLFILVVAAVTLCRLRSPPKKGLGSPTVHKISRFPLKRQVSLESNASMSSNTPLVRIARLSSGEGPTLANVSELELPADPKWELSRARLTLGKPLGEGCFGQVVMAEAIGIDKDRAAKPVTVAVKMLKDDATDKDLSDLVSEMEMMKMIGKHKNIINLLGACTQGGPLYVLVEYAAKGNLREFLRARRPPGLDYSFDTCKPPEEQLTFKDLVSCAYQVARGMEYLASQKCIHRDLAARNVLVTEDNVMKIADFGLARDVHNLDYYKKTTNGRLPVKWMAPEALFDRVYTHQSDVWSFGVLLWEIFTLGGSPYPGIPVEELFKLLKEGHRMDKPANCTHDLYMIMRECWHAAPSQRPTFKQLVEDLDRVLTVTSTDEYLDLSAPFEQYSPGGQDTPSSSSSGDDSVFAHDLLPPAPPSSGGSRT
Sequence of EGFR(L861Q) (P00533 25-1210 L861Q): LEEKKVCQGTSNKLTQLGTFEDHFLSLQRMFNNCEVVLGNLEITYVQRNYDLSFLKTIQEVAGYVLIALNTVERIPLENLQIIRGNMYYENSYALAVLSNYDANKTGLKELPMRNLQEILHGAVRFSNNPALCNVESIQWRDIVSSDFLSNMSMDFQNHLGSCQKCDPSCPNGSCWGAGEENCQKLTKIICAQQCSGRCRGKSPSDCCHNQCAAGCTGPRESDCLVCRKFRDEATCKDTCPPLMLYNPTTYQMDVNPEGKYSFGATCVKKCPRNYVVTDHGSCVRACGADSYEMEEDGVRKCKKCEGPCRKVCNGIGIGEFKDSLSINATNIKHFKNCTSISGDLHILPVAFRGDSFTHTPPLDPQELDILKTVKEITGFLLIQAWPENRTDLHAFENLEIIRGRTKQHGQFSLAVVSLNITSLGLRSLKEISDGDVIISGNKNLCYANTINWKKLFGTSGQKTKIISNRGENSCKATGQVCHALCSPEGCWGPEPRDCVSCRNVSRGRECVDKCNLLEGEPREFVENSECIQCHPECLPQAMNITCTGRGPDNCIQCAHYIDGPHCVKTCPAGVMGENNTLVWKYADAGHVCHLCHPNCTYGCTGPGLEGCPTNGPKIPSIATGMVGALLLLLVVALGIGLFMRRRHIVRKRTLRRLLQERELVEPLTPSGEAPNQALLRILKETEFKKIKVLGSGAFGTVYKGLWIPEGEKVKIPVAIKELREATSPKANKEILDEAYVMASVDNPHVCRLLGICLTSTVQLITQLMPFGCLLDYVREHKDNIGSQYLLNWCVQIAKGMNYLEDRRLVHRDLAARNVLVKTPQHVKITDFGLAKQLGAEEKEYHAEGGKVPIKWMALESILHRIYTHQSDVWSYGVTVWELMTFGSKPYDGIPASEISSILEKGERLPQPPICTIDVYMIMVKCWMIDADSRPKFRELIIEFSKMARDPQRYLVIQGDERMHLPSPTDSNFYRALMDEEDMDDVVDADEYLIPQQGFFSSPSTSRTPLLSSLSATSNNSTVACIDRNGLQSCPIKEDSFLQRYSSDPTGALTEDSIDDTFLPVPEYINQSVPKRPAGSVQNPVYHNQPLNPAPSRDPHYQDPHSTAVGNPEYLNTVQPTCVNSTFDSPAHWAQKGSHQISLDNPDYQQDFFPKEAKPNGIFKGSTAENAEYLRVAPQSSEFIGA
Sequence of LATS1 (O95835 whole entry): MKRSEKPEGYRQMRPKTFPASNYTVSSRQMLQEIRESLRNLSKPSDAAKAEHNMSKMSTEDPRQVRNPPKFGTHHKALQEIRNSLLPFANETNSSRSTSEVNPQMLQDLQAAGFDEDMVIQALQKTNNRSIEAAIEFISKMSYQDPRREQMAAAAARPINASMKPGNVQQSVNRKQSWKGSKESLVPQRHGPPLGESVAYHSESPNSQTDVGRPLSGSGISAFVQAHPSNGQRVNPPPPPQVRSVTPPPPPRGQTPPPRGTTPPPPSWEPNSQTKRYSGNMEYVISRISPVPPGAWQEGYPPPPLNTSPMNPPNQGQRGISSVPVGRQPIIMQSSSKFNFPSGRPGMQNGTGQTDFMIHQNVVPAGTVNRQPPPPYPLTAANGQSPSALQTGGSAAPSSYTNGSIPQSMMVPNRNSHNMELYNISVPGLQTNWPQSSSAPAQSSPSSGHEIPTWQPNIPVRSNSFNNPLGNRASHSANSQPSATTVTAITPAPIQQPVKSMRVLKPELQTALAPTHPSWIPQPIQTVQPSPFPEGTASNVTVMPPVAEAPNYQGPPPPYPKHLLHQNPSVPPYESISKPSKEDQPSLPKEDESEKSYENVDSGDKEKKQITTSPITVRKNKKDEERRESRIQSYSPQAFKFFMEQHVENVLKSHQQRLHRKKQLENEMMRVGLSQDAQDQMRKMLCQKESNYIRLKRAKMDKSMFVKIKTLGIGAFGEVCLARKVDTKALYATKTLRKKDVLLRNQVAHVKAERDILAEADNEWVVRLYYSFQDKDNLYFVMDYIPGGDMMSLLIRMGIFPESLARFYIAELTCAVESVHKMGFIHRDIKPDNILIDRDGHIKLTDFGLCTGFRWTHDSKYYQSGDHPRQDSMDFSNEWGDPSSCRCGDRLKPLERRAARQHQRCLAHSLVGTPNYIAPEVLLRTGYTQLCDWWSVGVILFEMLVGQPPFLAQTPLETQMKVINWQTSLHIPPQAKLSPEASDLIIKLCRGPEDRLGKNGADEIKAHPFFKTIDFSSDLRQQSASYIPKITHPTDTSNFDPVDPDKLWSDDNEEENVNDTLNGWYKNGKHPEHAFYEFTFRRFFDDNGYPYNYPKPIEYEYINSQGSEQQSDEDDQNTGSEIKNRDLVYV
Sequence of ABL1-phosphorylated (P00519 whole entry): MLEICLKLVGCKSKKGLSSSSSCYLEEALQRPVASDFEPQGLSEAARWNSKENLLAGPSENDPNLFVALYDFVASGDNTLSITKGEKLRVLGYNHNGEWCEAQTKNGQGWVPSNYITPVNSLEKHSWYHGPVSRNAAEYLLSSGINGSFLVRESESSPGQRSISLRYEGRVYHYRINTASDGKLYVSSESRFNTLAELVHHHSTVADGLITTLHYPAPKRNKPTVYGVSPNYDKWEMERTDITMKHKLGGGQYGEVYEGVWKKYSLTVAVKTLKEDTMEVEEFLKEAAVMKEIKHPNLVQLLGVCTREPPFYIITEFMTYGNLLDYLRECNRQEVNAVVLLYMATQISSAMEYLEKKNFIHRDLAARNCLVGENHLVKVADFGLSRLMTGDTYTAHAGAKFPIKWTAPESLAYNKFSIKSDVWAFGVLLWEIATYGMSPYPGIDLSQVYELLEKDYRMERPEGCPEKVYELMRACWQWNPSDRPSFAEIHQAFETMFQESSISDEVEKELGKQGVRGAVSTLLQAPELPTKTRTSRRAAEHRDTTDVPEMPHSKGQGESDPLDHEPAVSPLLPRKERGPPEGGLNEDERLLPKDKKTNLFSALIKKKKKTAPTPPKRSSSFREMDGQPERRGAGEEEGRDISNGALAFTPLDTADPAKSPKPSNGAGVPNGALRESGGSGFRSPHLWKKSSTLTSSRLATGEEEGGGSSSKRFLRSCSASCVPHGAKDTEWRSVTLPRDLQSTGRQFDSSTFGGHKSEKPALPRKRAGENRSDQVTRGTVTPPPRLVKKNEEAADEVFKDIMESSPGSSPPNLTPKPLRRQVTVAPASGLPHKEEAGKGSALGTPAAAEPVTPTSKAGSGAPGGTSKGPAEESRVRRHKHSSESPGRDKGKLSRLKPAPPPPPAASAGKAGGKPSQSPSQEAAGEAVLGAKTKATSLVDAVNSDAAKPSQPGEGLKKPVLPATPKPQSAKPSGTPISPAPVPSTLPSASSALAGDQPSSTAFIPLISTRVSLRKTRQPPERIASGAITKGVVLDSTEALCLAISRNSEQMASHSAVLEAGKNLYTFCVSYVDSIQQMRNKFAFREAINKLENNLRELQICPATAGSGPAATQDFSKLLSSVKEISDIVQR
Sequence of HUNK (P57058 whole entry): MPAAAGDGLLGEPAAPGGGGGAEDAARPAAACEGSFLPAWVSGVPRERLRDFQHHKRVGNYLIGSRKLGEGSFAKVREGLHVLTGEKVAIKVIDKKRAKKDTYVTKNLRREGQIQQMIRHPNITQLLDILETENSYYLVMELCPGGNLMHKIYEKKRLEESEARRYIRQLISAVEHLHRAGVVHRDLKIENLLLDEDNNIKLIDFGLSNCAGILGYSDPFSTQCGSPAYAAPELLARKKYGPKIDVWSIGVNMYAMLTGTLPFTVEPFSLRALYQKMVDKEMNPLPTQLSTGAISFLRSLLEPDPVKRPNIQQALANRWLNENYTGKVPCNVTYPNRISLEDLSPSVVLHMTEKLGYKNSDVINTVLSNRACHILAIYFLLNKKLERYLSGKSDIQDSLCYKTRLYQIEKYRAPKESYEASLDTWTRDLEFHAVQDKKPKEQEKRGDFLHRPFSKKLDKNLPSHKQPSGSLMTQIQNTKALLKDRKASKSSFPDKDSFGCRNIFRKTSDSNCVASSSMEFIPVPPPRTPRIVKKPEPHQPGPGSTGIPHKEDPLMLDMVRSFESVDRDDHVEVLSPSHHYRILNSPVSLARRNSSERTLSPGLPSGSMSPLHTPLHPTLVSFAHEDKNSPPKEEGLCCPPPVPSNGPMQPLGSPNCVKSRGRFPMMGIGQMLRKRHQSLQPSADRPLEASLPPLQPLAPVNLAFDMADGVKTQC

Structure (SMILES): O=C1CCC(N2C(=O)c3cccc(NCCCCCCCCNC(=O)N4CC[C@H](NC5=Nc6cc(F)ccc6N(CC(F)F)c6ccc(Cl)cc65)C4)c3C2=O)C(=O)N1 (stereo partly drawn) [BJG-05-039, (3S)-3-((2-Chloro-5-(2,2-difluoroethyl)-8-fluoro-5H-dibenzo[b,e][1,4]diazepin-11-yl)amino)-N-(8-((2-(2,6-dioxopiperidin-3-yl)-1,3-dioxoisoindolin-4-yl)amino)octyl)pyrrolidine-1-carboxamide]
- remaining binding at 10 µM (CDK4): 86%
- Effect on cell proliferation (Hey A8 cells; HEY-A8 cells (PAK2-dependent)): Neither BJG-05-039 or NVS-PAK1-1 significantly affected cell proliferation
- EC50 (Hey A8 cells; Hey A8 cells (PAK2-dependent), read-out: EC50, anti-proliferative): 36 µM
- EC50 (MCF7 cells; first statement of b311): 0.003 µM
- EC50 (MCF7 cells; second listing of b311): 0.086 µM
- Effect on cell proliferation (OMM1 cells): Neither BJG-05-039 or NVS-PAK1-1 significantly affected cell proliferation
- EC50 (OMM1 cells; OMM-1, read-out: EC50, anti-proliferative): 20.8 µM
- remaining binding at 10 µM (RIPK4): 98%
- remaining binding at 10 µM (BLK): 73%
- remaining binding at 10 µM (HUNK): 100%
- remaining binding at 10 µM (WNK4): 77%
- remaining binding at 10 µM (SRC): 88%
- remaining binding at 10 µM (MAPKAPK5): 100%
- remaining binding at 10 µM (PRKD1): 81%
- remaining binding at 10 µM (TNK2): 92%
- remaining binding at 10 µM (TTK): 55%
- remaining binding at 10 µM (EPHA3): 47%
- remaining binding at 10 µM (IKK-beta): 94%
- remaining binding at 10 µM (MTOR): 74%
- remaining binding at 10 µM (TGFBR1): 100%
- remaining binding at 10 µM (PIK3CA): 60%
- remaining binding at 10 µM (EPHA1): 98%
- remaining binding at 10 µM (TAOK1): 95%
- remaining binding at 10 µM (EGFR(L861Q)): 88%
- remaining binding at 10 µM (PIK3CA(C420R)): 100%
- remaining binding at 10 µM (TYRO3): 72%
- remaining binding at 10 µM [1]: 90%
- remaining binding at 10 µM (LATS1): 100%
- remaining binding at 10 µM (ICK): 99%
- remaining binding at 10 µM (MYLK2): 93%
- remaining binding at 10 µM (ABL1-phosphorylated): 100%
- remaining binding at 10 µM (GRK2): 77%
- remaining binding at 10 µM (ALK(C1156Y)): 100%
- remaining binding at 10 µM (NDR2): 45%
- remaining binding at 10 µM (RIOK1): 84%
- remaining binding at 10 µM (FGFR3): 85%
- remaining binding at 10 µM (CSNK1A1): 93%
- remaining binding at 10 µM (EPHA6): 94%
- remaining binding at 10 µM (RAF1): 97%
